The conditions of this series: for aqueous solubility: pH 6.8.

In brackets after ≈: the same amount, converted by molar mass.

As to `C[C@@H](CO)Nc1nc(C(F)(F)F)nc2[nH]cnc12`, the MDR1-MDCK efflux ratio was determined as 6.72; the intrinsic clearance, human liver microsomes is no more than 4.74 mL/min/kg; the intrinsic clearance, rat liver microsomes is no more than 10.7 mL/min/kg; the aqueous solubility (usually how much of the substance goes into solution per volume) was found to be 40 µg/mL (≈ 153 µM).
Consider `Cn1nc(C2CCNCC2)c2cccnc21`, for which the MDR1-MDCK efflux ratio is 6.86; the intrinsic clearance, human liver microsomes is no more than 4.74 mL/min/kg; the intrinsic clearance, rat liver microsomes turned out to be 36.3 mL/min/kg; the aqueous solubility was 53.4 µg/mL (≈ 247 µM).
As for `CCN(CC)C(=O)N1CCCN(C(=O)N(CC)CC)CC1`, the MDR1-MDCK efflux ratio was 4.51; the intrinsic clearance, human liver microsomes worked out at 68.5 mL/min/kg; the intrinsic clearance, rat liver microsomes is 698 mL/min/kg; the aqueous solubility came to 48.6 µg/mL (≈ 163 µM).
Turning to `COc1ccc(-c2nc(C3CCN(C(=O)c4sc(C)nc4C)CC3)[nH]c2C(N)=O)cc1`, the MDR1-MDCK efflux ratio came to 42.1; the intrinsic clearance, human liver microsomes is no more than 4.74 mL/min/kg; the intrinsic clearance, rat liver microsomes turned out to be 39.4 mL/min/kg; the aqueous solubility worked out at 61.8 µg/mL (≈ 141 µM).
With `CCc1c[nH]c2ncnc(N3CCC(CN4CCN(C)CC4)CC3)c12`, the MDR1-MDCK efflux ratio was found to be 8.23; the fraction unbound, human plasma came to 0.535; the intrinsic clearance, human liver microsomes is no more than 4.74 mL/min/kg.
Take `O=C(CC1c2ccccc2CCc2ccccc21)NCCN1CCOCC1`: the MDR1-MDCK efflux ratio came to 10.6; the intrinsic clearance, human liver microsomes came to 131 mL/min/kg; the intrinsic clearance, rat liver microsomes was 2020 mL/min/kg.
As for `CN(Cc1cccc(Cl)c1Cl)Cc1cc(=O)n(C)c(=O)n1C`, the MDR1-MDCK efflux ratio worked out at 0.829; the intrinsic clearance, human liver microsomes is 191 mL/min/kg; the intrinsic clearance, rat liver microsomes was 2760 mL/min/kg.
With `CC(=O)N1CCN(C(=O)c2ccc(-c3ccc(F)cc3)cc2F)CC1`, the MDR1-MDCK efflux ratio was found to be 1.47; the intrinsic clearance, human liver microsomes was no more than 4.74 mL/min/kg; the intrinsic clearance, rat liver microsomes was determined as 20 mL/min/kg; the aqueous solubility is 74.5 µg/mL (≈ 216 µM).
The molecule `Cc1noc(CCNc2cccc(F)c2C#N)n1` gave an intrinsic clearance, human liver microsomes of 40.7 mL/min/kg and an intrinsic clearance, rat liver microsomes of 266 mL/min/kg.
In turn, `O=c1oc2cccnc2n1Cc1cnn(-c2ccccc2)n1` registered an intrinsic clearance, human liver microsomes of no more than 4.74 mL/min/kg and an intrinsic clearance, rat liver microsomes of 63.7 mL/min/kg.
As to `Cc1sc2ncnc(OCC(=O)NC3CCCCC3)c2c1C`, the MDR1-MDCK efflux ratio was found to be 1.59; the intrinsic clearance, human liver microsomes was 34.8 mL/min/kg; the intrinsic clearance, rat liver microsomes amounted to 377 mL/min/kg; the aqueous solubility is 17.2 µg/mL (≈ 54 µM).
For `Nc1ncnc2c1ncn2[C@@H]1O[C@H](CO)[C@@H](O)[C@@H]1O`, the aqueous solubility is 54.7 µg/mL (≈ 205 µM).
In the case of `Cc1ccc(-n2ccnc2-c2ccoc2)c2cccnc12`, the MDR1-MDCK efflux ratio came out at 0.946; the intrinsic clearance, human liver microsomes stood at 55.1 mL/min/kg; the intrinsic clearance, rat liver microsomes worked out at 579 mL/min/kg; the aqueous solubility stood at 19.9 µg/mL (≈ 72.1 µM).
Consider `CCCc1nn(CCCN2CCCCC2)c(=O)o1`, for which the MDR1-MDCK efflux ratio amounted to 0.542; the intrinsic clearance, human liver microsomes worked out at 13.6 mL/min/kg; the intrinsic clearance, rat liver microsomes stood at 1600 mL/min/kg.
Turning to `CC(C)C[C@H](CO)Nc1nc(S[C@@H](C)c2ccccc2)nc2nc(N)sc12`, the intrinsic clearance, human liver microsomes turned out to be 40.2 mL/min/kg and the intrinsic clearance, rat liver microsomes stood at 329 mL/min/kg.
Molecule `N#Cc1c(N)nc(-c2ccccc2)nc1C(F)(F)F` showed an aqueous solubility of 0.19 µg/mL (≈ 0.719 µM).
For `CC(=O)NCC(=O)N1[C@@H]2CC[C@H]1c1ccc(Nc3ncc(C(F)(F)F)c(NC4CCC4)n3)cc12`, the MDR1-MDCK efflux ratio stood at 29.1; the intrinsic clearance, human liver microsomes was 20.8 mL/min/kg; the intrinsic clearance, rat liver microsomes was determined as 90.9 mL/min/kg.
As for `c1ccc(-c2cc3c(N4CCC(c5ncc[nH]5)CC4)ncnc3s2)cc1`, the MDR1-MDCK efflux ratio stood at 17.8; the intrinsic clearance, human liver microsomes is 117 mL/min/kg; the intrinsic clearance, rat liver microsomes is 1550 mL/min/kg; the aqueous solubility turned out to be 4.15 µg/mL (≈ 11.5 µM).
Consider `COc1cccc(Cc2nc3sc4c(c3c(=O)[nH]2)CCSC4)c1`, for which the MDR1-MDCK efflux ratio is 1.02; the intrinsic clearance, human liver microsomes amounted to 113 mL/min/kg; the intrinsic clearance, rat liver microsomes is 2820 mL/min/kg.
As to `Cc1cc(NC(=O)C2CCOCC2)sn1`, the MDR1-MDCK efflux ratio amounted to 0.91; the intrinsic clearance, human liver microsomes is no more than 4.74 mL/min/kg; the intrinsic clearance, rat liver microsomes is no more than 10.7 mL/min/kg; the aqueous solubility was 56.5 µg/mL (≈ 250 µM).
Regarding `CC(C)(C=C(C#N)C(=O)N1CCC[C@@H](n2nc(-c3ccc(Oc4ccccc4)cc3F)c3c(N)ncnc32)C1)N1CCN(C2COC2)CC1`, the MDR1-MDCK efflux ratio came to 35.9; the fraction unbound, human plasma turned out to be 0.0189; the fraction unbound, rat plasma turned out to be 0.0133; the intrinsic clearance, human liver microsomes was 535 mL/min/kg. The molecule further gave an intrinsic clearance, rat liver microsomes of 1140 mL/min/kg and an aqueous solubility of 35.8 µg/mL (≈ 53.7 µM).
As to `O=C(c1ccc(F)c(F)c1)N1CCN(C(=O)c2nc(Cl)ccc2Cl)CC1`, the MDR1-MDCK efflux ratio is 4.42; the intrinsic clearance, human liver microsomes was no more than 4.74 mL/min/kg; the intrinsic clearance, rat liver microsomes is 23.3 mL/min/kg; the aqueous solubility stood at 61.7 µg/mL (≈ 154 µM).
On to `CC(C)(C)C(=O)N1CCC(CN2C(=O)C(=O)N(C3CCCC3)C2=O)CC1`, for which the MDR1-MDCK efflux ratio was 2.03; the intrinsic clearance, human liver microsomes is 22.1 mL/min/kg; the intrinsic clearance, rat liver microsomes is 288 mL/min/kg; the aqueous solubility is 66.8 µg/mL (≈ 184 µM).
With `Cc1n[nH]c(-c2c(C)c3cc(F)ccc3n2C)n1`, the MDR1-MDCK efflux ratio was determined as 0.509; the intrinsic clearance, human liver microsomes was 88.2 mL/min/kg; the intrinsic clearance, rat liver microsomes came out at 316 mL/min/kg; the aqueous solubility is 23.5 µg/mL (≈ 96.2 µM).
In the same order, the values of `CCc1nnnn1Cc1noc2c1CCCC2` are 0.792, no more than 4.74 mL/min/kg, 60.7 mL/min/kg and 23.2 µg/mL (≈ 99.6 µM).
Turning to `Cc1cc(SCc2ccc(Cl)nc2)nc2ccccc12`, the intrinsic clearance, human liver microsomes is 327 mL/min/kg and the intrinsic clearance, rat liver microsomes was determined as 1380 mL/min/kg.
Turning to `CCn1nccc1-c1cc(CC2CCNCC2)ncn1`, the MDR1-MDCK efflux ratio was determined as 54.7; the intrinsic clearance, human liver microsomes is no more than 4.74 mL/min/kg; the intrinsic clearance, rat liver microsomes is no more than 10.7 mL/min/kg; the aqueous solubility stood at 37.3 µg/mL (≈ 137 µM).
As for `O=C(COC(=O)c1cc(O)nc2ccccc12)c1ccc(Oc2c(Cl)cccc2[N+](=O)[O-])cc1`, the intrinsic clearance, human liver microsomes is 986 mL/min/kg and the intrinsic clearance, rat liver microsomes amounted to 184 mL/min/kg.
Take `CC(=O)c1ccccc1-c1cccc(C(=O)NCCCN2CCCC2)c1`: the MDR1-MDCK efflux ratio was 133; the intrinsic clearance, human liver microsomes is no more than 4.74 mL/min/kg; the intrinsic clearance, rat liver microsomes was found to be 742 mL/min/kg.
For `O=c1c2ccccc2nnn1CCOc1ccc(F)cc1`, the MDR1-MDCK efflux ratio is 0.42; the intrinsic clearance, human liver microsomes worked out at 26.1 mL/min/kg; the intrinsic clearance, rat liver microsomes turned out to be 124 mL/min/kg.
Regarding `COc1cccc(Cc2cnc(N)s2)c1`, the MDR1-MDCK efflux ratio came out at 0.671; the intrinsic clearance, human liver microsomes amounted to 17.8 mL/min/kg; the intrinsic clearance, rat liver microsomes turned out to be 281 mL/min/kg.
`CC(C)(CNc1cnn(CCO)c1)c1ccccc1` yielded an intrinsic clearance, human liver microsomes of 8.4 mL/min/kg and an intrinsic clearance, rat liver microsomes of 324 mL/min/kg.
For `Cn1ccnc1C1CCN(C(=O)COCc2nc3cc(F)ccc3[nH]2)CC1`, the intrinsic clearance, human liver microsomes was no more than 4.74 mL/min/kg and the intrinsic clearance, rat liver microsomes turned out to be 61.5 mL/min/kg.
Turning to `NC(=O)CN1CCC(CCc2ccccc2)CC1`, the intrinsic clearance, human liver microsomes was no more than 4.74 mL/min/kg; the intrinsic clearance, rat liver microsomes came out at 461 mL/min/kg; the aqueous solubility turned out to be 41.3 µg/mL (≈ 168 µM).
With `CCc1cc(NS(C)(=O)=O)n(C)n1`, the MDR1-MDCK efflux ratio was found to be 2.54; the intrinsic clearance, human liver microsomes was no more than 4.74 mL/min/kg; the intrinsic clearance, rat liver microsomes was no more than 10.7 mL/min/kg.
With `Cn1ccc(CN2CCC(c3cnccn3)CC2)n1`, the MDR1-MDCK efflux ratio was found to be 0.983; the intrinsic clearance, human liver microsomes was no more than 4.74 mL/min/kg; the intrinsic clearance, rat liver microsomes was found to be 26.8 mL/min/kg; the aqueous solubility is 50 µg/mL (≈ 194 µM).
As to `NC(=O)Cn1cc(-c2ccc(F)cc2)cn1`, the MDR1-MDCK efflux ratio came out at 0.87; the intrinsic clearance, human liver microsomes is no more than 4.74 mL/min/kg; the intrinsic clearance, rat liver microsomes is no more than 10.7 mL/min/kg; the aqueous solubility came to 28 µg/mL (≈ 128 µM).
As to `Cc1ccc(CNC(=O)c2cccnc2)n1C`, the MDR1-MDCK efflux ratio was found to be 0.67; the intrinsic clearance, human liver microsomes is no more than 4.74 mL/min/kg; the intrinsic clearance, rat liver microsomes is no more than 10.7 mL/min/kg; the aqueous solubility came to 40.6 µg/mL (≈ 177 µM).
For `O=C(Nc1ccc(C(=O)O)c(O)c1)c1ccc(NC(=O)c2cccs2)cc1`, the MDR1-MDCK efflux ratio is 0.572; the intrinsic clearance, human liver microsomes is no more than 4.74 mL/min/kg; the intrinsic clearance, rat liver microsomes was no more than 10.7 mL/min/kg; the aqueous solubility was 54.3 µg/mL (≈ 142 µM).
`COc1ccc2ccccc2c1CNC(=O)c1cnc(C2CC2)nc1`: the MDR1-MDCK efflux ratio turned out to be 0.645; the intrinsic clearance, human liver microsomes came out at 33.7 mL/min/kg; the intrinsic clearance, rat liver microsomes came to 442 mL/min/kg; the aqueous solubility worked out at 5.12 µg/mL (≈ 15.4 µM).
As for `CN(c1ccc(NC(=O)Nc2ccc(OC(F)(F)F)cc2)cc1)c1ccnc(Nc2cccc(S(N)(=O)=O)c2)n1`, the MDR1-MDCK efflux ratio was determined as 8.5; the intrinsic clearance, human liver microsomes is no more than 4.74 mL/min/kg; the intrinsic clearance, rat liver microsomes is no more than 10.7 mL/min/kg; the aqueous solubility amounted to 1.95 µg/mL (≈ 3.4 µM).
`CN(C)Cc1ccnc(NC(=O)c2ccsc2)c1` returned an intrinsic clearance, human liver microsomes of 6.67 mL/min/kg and an intrinsic clearance, rat liver microsomes of 397 mL/min/kg.
For `c1cc(CNc2ncc(-c3cnccn3)c(C3CC3)n2)ccn1`, the MDR1-MDCK efflux ratio was 1.35; the intrinsic clearance, human liver microsomes is 25 mL/min/kg; the intrinsic clearance, rat liver microsomes turned out to be 1310 mL/min/kg.
As to `CN(C)C(=O)c1sc2nc(C3(C)CCN(c4ncccn4)CC3)ccc2c1N`, the MDR1-MDCK efflux ratio is 1.25; the intrinsic clearance, human liver microsomes was 32 mL/min/kg; the intrinsic clearance, rat liver microsomes came out at 111 mL/min/kg; the aqueous solubility was 65.8 µg/mL (≈ 166 µM).
Turning to `Cc1nc(-c2ccccc2)c(C(=O)Nc2ccc(Cl)c(Cl)c2)s1`, the MDR1-MDCK efflux ratio is 0.73; the intrinsic clearance, human liver microsomes stood at 89.2 mL/min/kg; the intrinsic clearance, rat liver microsomes was determined as 2390 mL/min/kg.
Taken in the same sequence, the figures for `Cc1cccc(N(C)Cc2cnc(N(C)C)nc2)n1` were 0.769, 57.7 mL/min/kg and 1770 mL/min/kg.
